biological target: DNA-PK (Homo sapiens, UniProt P78527); assay: DNA-PK inhibition assay (radiometric 33P-ATP kinase assay); type: biochemical; settings: 100 μM ATP; competitive tight-binding fit
Protocol: Compounds were screened for their ability to inhibit DNA-PK kinase using a standard radiometric assay. Briefly, in this kinase assay the transfer of the terminal ^33P-phosphate in ^33P-ATP to a peptide substrate is interrogated. The assay was carried out in 384-well plates to a final volume of 50 μL per well containing approximately 6 nM DNA-PK, 50 mM HEPES (pH 7.5), 10 mM MgCl2, 25 mM NaCl, 0.01% BSA, 1 mM DTT, 10 μg/mL sheared double-stranded DNA (obtained from Sigma), 0.8 mg/mL DNA-PK peptide ([…] obtained from American Peptide), and 100 μM ATP. Accordingly, compounds of the invention were dissolved in DMSO to make 10 mM initial stock solutions. Serial dilutions in DMSO were then made to obtain the final solutions for the assay. A 0.75 μL aliquot of DMSO or inhibitor in DMSO was added to each well, followed by the addition of ATP substrate solution containing ^33P-ATP (obtained from Perkin Elmer). The reaction was started by the addition of DNA-PK, peptide and ds-DNA. After 45 min. the reaction was quenched with 25 μL of 5% phosphoric acid. The reaction mixture was transferred to MultiScreen HTS 384-well PH plates (obtained from Millipore), allowed to bind for one hour, and washed three times with 1% phosphoric acid. Following the addition of 50 μL of Ultima Gold™ high efficiency scintillant (obtained from Perkin Elmer), the samples were counted in a Packard TopCount NXT Microplate Scintillation and Luminescence Counter (Packard BioScience). The Ki values were calculated using Microsoft Excel Solver macros to fit the data to the kinetic model for competitive tight-binding inhibition.

Row | SMILES | Ki [nM]
1 | CNC(=O)c1ccnc2c([C@H](C)CNc3cc(-c4ccc(N(C)C5CCN(CC(F)(F)F)CC5)nc4)ncn3)cccc12 [Compound 1042] | < 30
2 | CNC(=O)c1c(F)cnc2c([C@H](C)CNc3cc(-c4ccc(CC5CCN(CC(F)F)CC5)nc4)ncn3)cccc12 [Compound 1043] | < 30
3 | CNC(=O)c1c(F)cnc2c([C@H](C)CNc3cc(-c4cnc(CC5CCN(C(C)=O)CC5)nc4)ncn3)cccc12 [Compound 1044] | < 30
4 | CNC(=O)c1ccnc2c([C@H](C)CNc3cc(-c4cnc(CC5CCN(CC(F)F)CC5)nc4)ncn3)cccc12 [Compound 1045] | < 30
5 | CNC(=O)c1c(F)cnc2c([C@H](C)CNc3cc(-c4cnc(CC5CCN(CC(F)F)CC5)nc4)ncn3)cccc12 [Compound 1046] | < 30
6 | CNC(=O)c1ccnc2c([C@H](C)CNc3cc(-c4cnc(CC5CCN(CC(F)(F)F)CC5)nc4)ncn3)cccc12 [Compound 1047] | < 30
7 | CNC(=O)c1c(F)cnc2c([C@H](C)CNc3cc(-c4cnc(CC5CCN(CC(F)(F)F)CC5)nc4)ncn3)cccc12 [Compound 1048] | < 30
8 | CNC(=O)c1c(F)cnc2c([C@H](C)CNc3cc(-c4cnc(OC5CCN(C)CC5)nc4)ncn3)cccc12 [Compound 1050] | < 30
9 | CNC(=O)c1ccnc2c([C@H](C)CNc3cc(-c4cnc(NCCNC(C)=O)nc4)ncn3)cccc12 [Compound 1051] | < 30
10 | CNC(=O)c1c(F)cnc2c([C@H](C)CNc3cc(-c4cnc(NCCNC(C)=O)nc4)ncn3)cccc12 [Compound 1052] | < 30
11 | CNC(=O)c1ccnc2c([C@H](C)CNc3cc(-c4cnc(NCCNC(C)=O)nc4)ncn3)ccc(F)c12 [Compound 1053] | < 30
12 | CNC(=O)c1ccnc2c([C@H](C)CNc3cc(-c4cnc(NCC(F)(F)F)nc4)ncn3)ccc(F)c12 [Compound 1054] | < 30
13 | CNC(=O)c1ccnc2c([C@H](C)CNc3cc(-c4cnc(NC5CCN(C(C)=O)CC5)nc4)ncn3)ccc(F)c12 [Compound 1055] | < 30
14 | CNC(=O)c1ccnc2c([C@H](C)CNc3cc(-c4cnc(N(C)C5CCN(C)CC5)nc4)ncn3)cccc12 [Compound 1057] | < 30
15 | CNC(=O)c1c(F)cnc2c([C@H](C)CNc3cc(-c4cnc(N(C)C5CCN(C)CC5)nc4)ncn3)cccc12 [Compound 1058] | < 30
16 | CNC(=O)c1c(F)cnc2c([C@H](C)CNc3cc(-c4cnc(N(C)C5CCN(C(C)=O)CC5)nc4)ncn3)cccc12 [Compound 1059] | < 30
17 | CNC(=O)c1ccnc2c([C@H](C)CNc3cc(-c4cnc(N(C)C5CCN(CC(F)F)CC5)nc4)ncn3)cccc12 [Compound 1060] | < 30
18 | CNC(=O)c1ccnc2c([C@H](C)CNc3cc(-c4cnc(N(C)C5CCN(CC(F)(F)F)CC5)nc4)ncn3)cccc12 [Compound 1061] | < 30
19 | CNC(=O)c1c(F)cnc2c([C@H](C)CNc3cc(-c4cnc(N(C)C5CCN(CC(F)F)CC5)nc4)ncn3)cccc12 [Compound 1062] | < 30
20 | CNC(=O)c1c(F)cnc2c([C@H](C)CNc3cc(-c4ccc(NC5CCN(C)CC5)nc4)ncn3)cccc12 [Compound 1063] | < 30
21 | CNC(=O)c1ccnc2c([C@H](C)CNc3cc(-c4ccc(NC5CCN(C(C)=O)CC5)nc4)ncn3)cccc12 [Compound 1064] | < 30
22 | CNC(=O)c1c(F)cnc2c([C@H](C)CNc3cc(-c4ccc(NC5CCN(C(C)=O)CC5)nc4)ncn3)cccc12 [Compound 1065] | < 30
23 | CNC(=O)c1ccnc2c([C@H](C)CNc3cc(-c4cnc(NCC(F)(F)F)nc4)ncn3)cccc12 [Compound 1066] | < 30
24 | CNC(=O)c1ccnc2c([C@H](C)CNc3cc(-c4ccc(C5(O)COC5)nc4)ncn3)cccc12 [Compound 1067] | < 30
25 | CNC(=O)c1c(F)cnc2c([C@H](C)CNc3cc(-c4ccc(C5(O)COC5)nc4)ncn3)cccc12 [Compound 1068] | < 30
26 | CNC(=O)c1ccnc2c([C@H](C)CNc3cc(-c4ccc(C5(O)COC5)nc4)ncn3)ccc(F)c12 [Compound 1069] | < 30
